Measurements reported in patent publication US12522877B2, “Early detection of drug-resistant mycobacterium tuberculosis” (The Translational Genomics Research Institute, priority 2020, dated 2026).

Experiments:
[1] = human, in vivo
M. tuberculosis isolates [2] = format: cell-based, Mycobacterium tuberculosis
[3] = in vivo; cited from earlier work
M. tuberculosis isolates [4] = format: cell-based, Mycobacterium tuberculosis; remark: listed apart in the source

SMILES	adverse effect for which the drug was stopped [1]	Phenotypic DST (M. tuberculosis isolates [2])	also measured
CC[C@@H](CO)NCCN[C@@H](CC)CO [ethambutol]	persistent arthralgias and changes in vision		
NCC[C@H](O)C(=O)N[C@@H]1C[C@H](N)[C@@H](O[C@H]2O[C@H](CN)[C@@H](O)[C@H](O)[C@H]2O)[C@H](O)[C@H]1O[C@H]1O[C@H](CO)[C@@H](O)[C@H](N)[C@H]1O [Amikacin]		S	Phenotypic susceptibility (M. tuberculosis isolates [2]): phenotypically susceptible; Routine phenotypic DST (M. tuberculosis isolates [2]): susceptible
NC(=O)c1cnccn1 [Pyrazinamide]	persistent arthralgias and changes in vision		
COc1nc2ccc(Br)cc2cc1[C@@H](c1ccccc1)[C@@](O)(CCN(C)C)c1cccc2ccccc12 [bedaquiline]			half-life [3]: 5.5 months; acquired resistance to bedaquiline (M. tuberculosis isolates [4]): 39%
CC1COc2c(N3CCN(C)CC3)c(F)cc3c(=O)c(C(=O)O)cn1c23 (stereo not drawn) [Ofloxacin]		S and R	
NNC(=O)c1ccncc1 [Isoniazid]	vision problems		
